The values below come from patent US5043340A, “Derivatives of 4-desacetyl VLB C-3 carboxhydrazide” (Eli Lilly and Company, priority 1990, dated 1991).

In one data set the test system is Gardner lymphosarcoma. Particulars: mouse, in vivo; cited from earlier work.
Data set [1] deals with Ridgeway osteogenic sarcoma. Particulars: mouse, in vivo; cited from earlier work.
In a further data set the test system is P 1534(J) leukemia. Particulars: mouse, in vivo; cited from earlier work.
The subject of a further data set is transplanted tumors. The settings on record: mouse, in vivo; cited from earlier work.
The test system of data set [2] is P3/UCLA lung adenocarcinoma xenografts. The data set can be described thus: in vivo test against xenografts of P3/UCLA lung adenocarcinoma in female nude mice. Particulars: days 2, 5 and 8, 28-day results. As to the method:
The compounds were tested in vivo against xenografts of P3/UCLA lung adenocarcinoma in female nude mice. The test was begun by implanting each mouse with 10^7 P3/UCLA tumor cells, subcutaneously. On each of days 2, 5, and 8 after implantation, each mouse was injected with a conjugate or a compound in physiological buffered saline. Control mice were injected with saline only. The doses of conjugate or of vinca intermediate (based on vinca hydrazide content) are indicated below. The size of the tumors induced by implantation was measured on days 14, 21, and 28 after implantation. Each treatment group consisted of five mice.

Data set [3] relates to human leukemic cells (CCRF-CEM cell line). The data set can be described thus: CCRF-CEM Cytotoxicity Assay (72 h, Coulter particle counter). Particulars: 37° C., read-out: IC50 (concentration giving 50% growth inhibition). In kind it is cell-based. Here is the method:
The CEM cells were grown in RPMI 1640 media (MA Bioproducts) at 37° C. in humidified atmospheric conditions of 95% air and 5% CO2. The cells were grown in static suspension and maintained in log growth phase at a concentration of 3-7×10^5 cells/ml. The cells were dispersed in wells at a concentration of 4.8×10^4 /well. The drug was dissolved in dimethyl sulfoxide and was added at different dilutions to the cluster plates (wells). The cluster plates were incubated at 37° C. for 72 hours. After 72 hours the wells were read using a ZBI Coulter particle counter. Table 3 below gives the results of such testing of several compounds represented by Formula I above. In the table, Column 1 gives the name of the compound and Column 2 gives the IC50 (concentration giving 50% growth inhibition) in μg/ml.

The subject of data set [4] is human lung adenocarcinoma cells (P3/UCLA cell line). The data set can be described thus: P3/UCLA - GIEMSA ASSAY (5 days). In kind it is cell-based. The settings on record: 120 h, 37° C., free compound, read-out: IC50 (concentration giving 50% growth inhibition).
For data set [5] the following is noted: in humans, compared with vincristine; cited from earlier work.
Data set [6] relates to vincristine-resistant leukemias. The settings on record: in humans; cited from earlier work.

Structures are written as SMILES. Where a name gives a salt, the structure may show the parent alone.

Turning to `CCC1(O)CC2CN(CCc3c([nH]c4ccccc34)C(C(=O)OC)(c3cc4c(cc3OC)N(C)C3C(O)(C(=O)NN)C(O)C5(CC)C=CCN6CCC43C65)C2)C1` (stereo not shown) [4-desacetyl VLB C-3 carboxhydrazide], the “activity against Gardner lymphosarcoma” value in the data set with Gardner lymphosarcoma is given as “active”. Moreover, the “activity against Ridgeway osteogenic sarcoma” value in data set [1] was “active”. Also, the “activity against P 1534(J) leukemia” value with P 1534(J) leukemia was “active”. The anti-tumor activity entry in the data set on transplanted tumors was “active anti-tumor agent against transplanted tumors in mice”.
For the compound `CCC1(O)CC2CN(CCc3c([nH]c4ccccc34)C(C(=O)OC)(c3cc4c(cc3OC)N(C)C3C(O)(C(=O)NNC(C)CCCCC(=O)NCCC(=O)O)C(O)C5(CC)C=CCN6CCC43C65)C2)C1` (stereo not shown) [Example 17, 4-Desacetyl VLB C-3 N^2-(6-[(2-carboxyethyl)amino]-1-methyl-6-oxohexyl)carboxhydrazide sulfate salt], the “% Inhibition” value in data set [2] (1.00 mg/kg (based on vinca hydrazide content)) came to 20%; in data set [2] (2.00 mg/kg (based on vinca hydrazide content)), 39%. For the same compound, the IC50 in data set [3] was found to be 0.039 µg/mL; in data set [4] it was 0.217 µg/mL.
As to `CC[C@]1(O)C[C@@H]2CN(CCc3c([nH]c4ccccc34)[C@@](C(=O)OC)(c3cc4c(cc3OC)N(C)[C@H]3[C@@](O)(C(N)=O)[C@H](O)[C@]5(CC)C=CCN6CC[C@]43[C@@H]65)C2)C1` [vindesine, 4-desacetyl VLB C-3 carboxamide], the neurotoxicity entry in data set [5] is listed as “less neurotoxicity than does vincristine”. Further, the “effective against vincristine-resistant leukemias” value in data set [6] is listed as “apparently effective against vincristine-resistant leukemias”.

The term % Inhibition denotes the relative decrease from the control value, in per cent. Read a low % Inhibition as a response near the control.
